Results as given in paper PMC9490236, “Accurate de novo design of membrane-traversing macrocycles” (Cell, 2022).
Where a SMILES comes first, the peptide text is derived from it. [ ]: non-standard residue; d: D form. ξ: configuration not given here. dNMeI = CC[C@@H](C)[C@@H](NC)C(=O)O; NMeF = CN[C@@H](Cc1ccccc1)C(=O)O; NMeI = CC[C@H](C)[C@H](NC)C(=O)O; dIle(3ξ) = CCC(C)[C@@H](N)C(=O)O; dNMeF = CN[C@H](Cc1ccccc1)C(=O)O; NMeL = CN[C@@H](CC(C)C)C(=O)O; dNMeL = CN[C@H](CC(C)C)C(=O)O; NMeA = CN[C@@H](C)C(=O)O; dNMeA = CN[C@H](C)C(=O)O; Aib = CC(C)(N)C(=O)O

How the values were obtained:
in vitro = conditions: PAMPA, PAMPA_Papp_Avg
[1] = Caco-2 permeability assay (apical to basolateral); format: in vitro ADME, human; conditions: for Papp A→B: Caco-2, Caco_Papp_Average; for Papp at 90 min, 50 µM: human, Caco-2
Protocol: (§1) Human colon adenocarcinoma-derived Caco-2 cell line was used as a model system to investigate the intestinal epithelial permeability of our designs. Caco-2 cells were propagated in T125 flasks (Corning, Merck) using Dulbecco’s modified Eagle medium supplemented with 10% (v/v) fetal bovine serum, 1% (v/v) nonessential amino acids, and 1% (v/v) penicillin-streptomycin (Gibco, Thermo Fisher Scientific) at 37°C in an atmosphere of 5% CO2. Cells were subcultured when they reached 80% confluence.
(§2) The permeability of designed peptides was evaluated using an accelerated 6-day Caco-2 permeability assay as described previously ([Sevin et al., 2013]). In brief, cells were seeded into the 12-well Transwell plates with 0.4 μm polyester membrane inserts (Corning, Merck) to give 4.0 × 10^5 cells/well. The complete assay medium contained Dulbecco’s modified Eagle medium supplemented with 10% (v/v) fetal bovine serum, 1% (v/v) nonessential amino acids, and 0.4 μg/mL puromycin. The medium in plates was renewed every second day. The inserts received 0.75 mL of assay medium in the upper compartment (apical chamber) and 1.5 mL in the bottom compartment (basolateral chamber) individually. After 6-day incubation or until the cells formed monolayers, the medium in the apical and basolateral chamber was replaced with peptide solutions at 50 μM or Hanks' Balanced Salt Solution (HBSS), separately. The plates were incubated for 90 min at 37°C on an orbital shaker (60 rpm). The peptide concentration of solutions in the apical and basolateral compartments was subsequently quantified using LC-MS (Qstar Elite, AB Sciex Australia) to evaluate the transmembrane flux of peptides in the apical-to-basolateral direction. Membrane integrity of the Caco-2 cell monolayer was validated using trans-epithelial electrical resistance (TEER) measurements before and after the assays. Atenolol and quinidine were included as negative and positive controls in all assays.

Caco-2 cells = experiment: Caco-2 permeability assay (apical to basolateral); format: in vitro ADME, human; conditions: Caco-2
Protocol: as §1, §2

[2] = PAMPA

Row | Compound | Papp (in vitro) [×10⁻⁶ cm/s] | Papp A→B [1] [×10⁻⁶ cm/s] | Papp at 90 min, 50 µM [1] [×10⁻⁶ cm/s] | Caco_R1 (Caco-2 cells) | Caco_R3 (Caco-2 cells) | PAMPA_R1 [2] | PAMPA_R3 [2]
1 | CC[C@@H](C)[C@H]1NC(=O)[C@H]2CCCN2C(=O)[C@@H]2CCCN2C(=O)[C@@H]([C@H](C)CC)NC(=O)[C@@H](Cc2ccccc2)NC(=O)[C@@H](Cc2ccccc2)N(C)C(=O)[C@@H]2CCCN2C(=O)[C@@H](C(C)C)NC1=O [Design D8.33, DPHE DILE PRO DPRO DILE DVAL PRO *DPHE] (cyclo(P[dNMeF][dF][dI]P[dP][dI][dV])) | 6.72 | 19.1 | > 10 | 18.4 | 16.82 | 5.91E-06 | 1.01E-05
2 | CC[C@H](C)[C@@H]1NC(=O)[C@@H](CC(C)C)N(C)C(=O)[C@@H]2CCCN2C(=O)[C@H](C(C)C)NC(=O)C(C)(C)NC(=O)[C@H](CC(C)C)NC(=O)C(C)(C)NC(=O)[C@@H]2CCCN2C(=O)[C@H]2CCCN2C1=O [Design D9.1, DPRO PRO AIB LEU AIB VAL PRO *DLEU ILE] (cyclo([Aib]L[Aib]VP[dNMeL]I[dP]P)) | 1.59 | 0.897 |  | 0.42 | 2.09 | 1.43E-06 | 1.63E-06
3 | CC[C@@H](C)[C@H]1NC(=O)[C@H](CC(C)C)NC(=O)[C@@H](CC(C)C)NC(=O)[C@H](C(C)C)NC(=O)[C@@H](Cc2ccccc2)N(C)C(=O)[C@@H]2CCCN2C(=O)[C@@H](CC(C)C)NC(=O)[C@H](CC(C)C)N(C)C(=O)[C@H]2CCCN2C1=O [Design D9.3, LEU DILE DPRO *LEU DLEU PRO *DPHE VAL DLEU] (cyclo(L[dI][dP][NMeL][dL]P[dNMeF]V[dL])) | 2.33 | 3.53 |  | 2.82 | 3.81 | 3.06E-06 | 2.01E-06
4 | CCC(C)[C@H]1NC(=O)[C@H](CC(C)C)NC(=O)[C@@H](C)N(C)C(=O)[C@@H]2CCCN2C(=O)[C@H](C)NC(=O)[C@@H](CC(C)C)NC(=O)[C@H]2CCCN2C(=O)[C@H](C(C)C)NC(=O)[C@@H](CC(C)C)N(C)C1=O (stereo partly drawn) [Design D9.30, DPRO DLEU ALA PRO *DALA LEU DILE *DLEU VAL] (cyclo(AP[dNMeA]L[dIle(3ξ)][dNMeL]V[dP][dL])) | 1.6 | 2.32 |  | 1.9 | 2.72 | 1.58E-06 | 1.58E-06
5 | CC[C@@H](C)[C@H]1NC(=O)[C@H](CC(C)C)N(C)C(=O)[C@H]2CCCN2C(=O)[C@H](CC(C)C)NC(=O)[C@H](Cc2ccccc2)N(C)C(=O)[C@H](CC(C)C)N(C)C(=O)[C@@H](C(C)C)NC(=O)[C@H](C)NC(=O)[C@H]2CCCN2C(=O)[C@@H]2CCCN2C1=O [Design D10.17.p2, *LEU *PHE LEU DPRO *LEU DILE PRO DPRO ALA DVAL] | 2.69 | 8.7 |  | 12.57 | 7.84 | 3.37E-06 | 2.91E-06
6 | CC[C@H](C)[C@H]1C(=O)N[C@H](C)C(=O)N[C@@H](CC(C)C)C(=O)N[C@@H](C(C)C)C(=O)N2CCC[C@@H]2C(=O)N(C)[C@@H](CC(C)C)C(=O)N[C@@H](C(C)C)C(=O)N2CCC[C@H]2C(=O)N(C)[C@H](CC(C)C)C(=O)N[C@@H](C(C)C)C(=O)N1C [Design D10.19, DALA LEU VAL DPRO *LEU VAL PRO *DLEU VAL *ILE] (cyclo(LV[dP][NMeL]VP[dNMeL]V[NMeI][dA])) | 6.36 | 17.1 | > 10 | 15.38 | 17.24 | 7.24E-06 | 7.38E-06
7 | CC[C@@H](C)[C@H]1NC(=O)[C@H](Cc2ccccc2)NC(=O)[C@@H](CC(C)C)N(C)C(=O)[C@@H]2CCCN2C(=O)[C@@H](C(C)C)NC(=O)[C@@H](C)N(C)C(=O)[C@H]2CCCN2C(=O)[C@@H](CC(C)C)NC(=O)[C@H](CC(C)C)NC(=O)[C@@H]2CCCN2C1=O [Design D10.30, PRO *DLEU PHE DILE PRO LEU DLEU DPRO *DALA DVAL] (cyclo(F[dI]PL[dL][dP][dNMeA][dV]P[dNMeL])) | 4.78 | 16.1 | > 10 | 15.3 | 15.5 | 5.23E-06 | 4.05E-06
8 | CC[C@H](C)[C@@H]1NC(=O)[C@@H](CC(C)C)NC(=O)[C@@H](C)N(C)C(=O)[C@H](Cc2ccccc2)NC(=O)[C@@H](CC(C)C)NC(=O)[C@@H](C)N(C)C(=O)[C@@H]2CCCN2C(=O)[C@H](C(C)C)NC(=O)[C@H]2CCCN2C(=O)[C@@H]2CCCN2C1=O [Design D10.31, PHE *DALA DLEU ILE PRO DPRO VAL PRO *DALA DLEU] (cyclo(F[dNMeA][dL]IP[dP]VP[dNMeA][dL])) | 1.9 | 2.79 |  | 1.93 | 3.02 | 1.81E-06 | 2.20E-06
9 | CC[C@@H](C)[C@H]1NC(=O)[C@@H](Cc2ccccc2)NC(=O)[C@@H](CC(C)C)NC(=O)[C@@H]2CCCN2C(=O)[C@H]2CCCN2C(=O)[C@H](CC(C)C)NC(=O)[C@H](CC(C)C)NC(=O)[C@@H](CC(C)C)N(C)C(=O)[C@H](C)N(C)C(=O)[C@H]2CCCN2C1=O [Design D10.34, DPHE DILE DPRO *ALA *DLEU LEU LEU DPRO PRO DLEU] (cyclo([dL][dF][dI][dP][NMeA][dNMeL]LL[dP]P)) | 4.51 | 15 | > 10 | 14.68 | 14.14 | 4.77E-06 | 4.57E-06
10 | CC[C@H](C)[C@@H]1NC(=O)[C@@H](C(C)C)NC(=O)[C@@H](CC(C)C)N(C)C(=O)[C@H]2CCCN2C(=O)[C@@H](CC(C)C)NC(=O)[C@@H](CC(C)C)N(C)C(=O)[C@H](CC(C)C)NC(=O)[C@H]2CCCN2C(=O)[C@H](C)N(C)C(=O)[C@H]2CCCN2C1=O [Design D10.41, DPRO *DLEU DVAL ILE DPRO *ALA DPRO LEU *DLEU DLEU] (cyclo(I[dP][NMeA][dP]L[dNMeL][dL][dP][dNMeL][dV])) | 5.69 | 7.66 |  | 4.42 | 10.34 | 5.92E-06 | 5.38E-06
11 | CC[C@@H](C)[C@H]1NC(=O)[C@@H]2CCCN2C(=O)[C@@H]([C@H](C)CC)NC(=O)[C@@H](C)N(C)C(=O)[C@H](CC(C)C)NC(=O)[C@@H](Cc2ccccc2)NC(=O)[C@H](CC(C)C)N(C)C(=O)[C@H]2CCCN2C(=O)[C@@H](CC(C)C)NC(=O)[C@H](CC(C)C)NC(=O)[C@H]2CCCN2C1=O [Design D11.1, DILE DPRO LEU DLEU DPRO *LEU DPHE LEU *DALA DILE PRO] (cyclo(L[dL][dP][NMeL][dF]L[dNMeA][dI]P[dI][dP])) | 3.48 | 2.77 |  | 2.39 | 3.24 | 3.55E-06 | 3.63E-06
12 | CC[C@@H](C)[C@H]1NC(=O)[C@H]([C@@H](C)CC)NC(=O)[C@H](Cc2ccccc2)N(C)C(=O)[C@H]2CCCN2C(=O)[C@@H]([C@H](C)CC)NC(=O)[C@@H]([C@H](C)CC)N(C)C(=O)[C@H](CC(C)C)NC(=O)[C@H]2CCCN2C(=O)[C@@H]2CCCN2C(=O)[C@H](C(C)C)NC(=O)[C@H]2CCCN2C1=O [Design D11.4, VAL PRO DPRO LEU *DILE DILE DPRO *PHE ILE DILE DPRO] (cyclo(I[dI][dP]VP[dP]L[dNMeI][dI][dP][NMeF])) | 1.47 | 4.99 |  | 3.83 | 6.55 | 1.64E-06 | 6.73E-07
13 | CC[C@@H](C)[C@H]1NC(=O)[C@@H](CC(C)C)NC(=O)[C@H](C(C)C)NC(=O)[C@@H](CC(C)C)N(C)C(=O)[C@@H]2CCCN2C(=O)[C@H](C)NC(=O)[C@H](CC(C)C)N(C)C(=O)[C@H]2CCCN2C(=O)[C@H](C)N(C)C(=O)[C@@H](CC(C)C)N(C)C(=O)[C@@H]2CCCN2C1=O [Design D11.5, ALA PRO *DLEU VAL DLEU DILE PRO *DLEU *ALA DPRO *LEU] (cyclo(AP[dNMeL]V[dL][dI]P[dNMeL][NMeA][dP][NMeL])) | 2.81 | 3.84 |  | 2.93 | 3.89 | 2.56E-06 | 3.12E-06
14 | CC[C@@H](C)[C@H]1NC(=O)[C@H](C)N(C)C(=O)[C@H]([C@@H](C)CC)NC(=O)[C@H]2CCCN2C(=O)[C@H](CC(C)C)N(C)C(=O)[C@@H](C(C)C)NC(=O)[C@H](C)N(C)C(=O)[C@H]([C@@H](C)CC)NC(=O)[C@@H](CC(C)C)NC(=O)[C@@H]2CCCN2C(=O)[C@H]2CCCN2C1=O [Design D11.10, DPRO ILE *ALA DILE DPRO PRO DLEU ILE *ALA DVAL *LEU] (cyclo([dL]I[NMeA][dV][NMeL][dP]I[NMeA][dI][dP]P)) | 2.45 | 4.54 |  | 4.35 | 4.8 | 2.19E-06 | 3.23E-06
